# Assay results reported in PMC11359809, “Probing the molecular basis for signal transduction through the Zinc-Activated Channel (ZAC)” (Biochemical pharmacology, 2021).
# Positions count from the first letter of the chain named.
# Key:
# ZAC^H79A = assay: TEVC in oocytes, ZAC H79A mutant; type: cell-based, human; details: agonist; parallel recordings
# Procedure: (§1) The recordings were performed at room temperature.
# (§2) Analysis of the data from the TEVC recordings were performed using Clampfit software version 10.5 (Molecular Devices, Crawley, UK) and GraphPad Prism version 7.0c (GraphPad Software, La Jolla, CA). Unless otherwise stated, the inward currents induced by agonists in oocytes were normalized to the maximal response elicited by a specific agonist (agonist Imax) on each oocyte. Concentration-response and concentration-inhibition curves were fitted in GraphPad Prism by nonlinear regression using the equation for sigmoidal dose-response with variable slope. Each data point represents the mean ± S.E.M. value of recordings performed on at least five oocytes in total from at least two different batches. […] The null hypothesis was rejected at P < 0.05, and the differences between the means were analyzed by Tukey’s multiple comparisons test.
# (§3) The putative involvement of candidate residues in Clusters 1, 2, 3 and 4 in Zn^2+ binding to ZAC was investigated in by an elaborate alanine mutagenesis scanning. […] The determined IpH 4.0 value was used in part as a control and in part to enable the distinction of ZAC mutants non-responsive to Zn^2+ due to elimination of their ability to bind the metal ion from those where the mutation had eliminated cell surface expression and/or disrupted overall functionality of the receptor complex. […]
# WT m5-HT3AR = target: T1, WT m5-HT3AR (Mus musculus, UniProt P23979); assay: TEVC in Xenopus oocytes expressing WT m5-HT3AR; type: cell-based; details: 5-HT 30 μM
# T1 construct: expressed in transfected cells; host or cells: Xenopus oocytes injected with cRNA (pUNIV vector)
# T1 sequence (P23979 24-489): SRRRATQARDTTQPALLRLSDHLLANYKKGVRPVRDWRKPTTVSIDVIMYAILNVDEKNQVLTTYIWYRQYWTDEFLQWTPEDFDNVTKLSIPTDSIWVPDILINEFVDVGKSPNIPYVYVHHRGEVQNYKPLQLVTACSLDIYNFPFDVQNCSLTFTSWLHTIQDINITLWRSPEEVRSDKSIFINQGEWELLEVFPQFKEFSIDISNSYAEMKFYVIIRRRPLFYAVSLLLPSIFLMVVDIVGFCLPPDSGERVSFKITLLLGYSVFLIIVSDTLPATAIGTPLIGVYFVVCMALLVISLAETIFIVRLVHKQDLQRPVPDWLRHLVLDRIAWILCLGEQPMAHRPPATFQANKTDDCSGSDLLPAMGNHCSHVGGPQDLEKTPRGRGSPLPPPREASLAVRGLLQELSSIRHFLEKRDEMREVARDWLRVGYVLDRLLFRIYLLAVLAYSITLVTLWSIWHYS
# Procedure: as §1
# (§4) Analysis of the data from the TEVC recordings were performed using Clampfit software version 10.5 (Molecular Devices, Crawley, UK) and GraphPad Prism version 7.0c (GraphPad Software, La Jolla, CA). Unless otherwise stated, the inward currents induced by agonists in oocytes were normalized to the maximal response elicited by a specific agonist (agonist Imax) on each oocyte. Concentration-response and concentration-inhibition curves were fitted in GraphPad Prism by nonlinear regression using the equation for sigmoidal dose-response with variable slope. Each data point represents the mean ± S.E.M. value of recordings performed on at least five oocytes in total from at least two different batches. For the data where statistical analysis was performed, a one-way ANOVA was used. The null hypothesis was rejected at P < 0.05, and the differences between the means were analyzed by Tukey’s multiple comparisons test.
# ZAC^L9′I = target: T2, ZAC^L9′I (Homo sapiens, UniProt Q401N2, A152T/L270I); assay: TEVC in oocytes, ZAC L9′I mutant; type: cell-based; details: agonist; n = 8
# T2 construct: expressed in transfected cells; host or cells: Xenopus oocytes (cRNA injection, pUNIV vector)
# T2 sequence (Q401N2 26-412 A152T/L270I): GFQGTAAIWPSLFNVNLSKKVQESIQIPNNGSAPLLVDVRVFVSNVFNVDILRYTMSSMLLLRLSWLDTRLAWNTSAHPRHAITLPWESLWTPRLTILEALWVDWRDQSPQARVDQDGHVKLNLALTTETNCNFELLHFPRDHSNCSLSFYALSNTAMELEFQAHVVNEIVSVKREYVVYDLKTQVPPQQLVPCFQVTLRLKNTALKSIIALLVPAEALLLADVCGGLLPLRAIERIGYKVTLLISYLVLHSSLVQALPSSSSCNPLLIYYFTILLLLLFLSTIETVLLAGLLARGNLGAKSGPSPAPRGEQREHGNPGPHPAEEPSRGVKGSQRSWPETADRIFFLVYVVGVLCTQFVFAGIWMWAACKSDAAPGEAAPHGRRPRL
# Procedure: as §1, §4
# [1] = target: T3, ZAC^E24A/E89A/D105A/D108A/E130A (Homo sapiens, UniProt Q401N2, A152T/D129A/D132A/E113A/E154A/E48A); assay: TEVC in oocytes, Cluster 3 quintuple mutant; type: cell-based; details: H^+ pH 4.0; Zn^2+ 10 mM; data not shown
# T3 construct: expressed in transfected cells; host or cells: Xenopus oocytes injected with cRNA (pUNIV vector)
# Procedure: as §1, §2, §3
# ZAC^L9′A = target: T4, ZAC^L9′A (Homo sapiens, UniProt Q401N2, A152T/L270A); assay: TEVC in oocytes, ZAC L9′A mutant; type: cell-based; details: agonist; n = 7
# T4 construct: expressed in transfected cells; host or cells: Xenopus oocytes injected with cRNA (pUNIV vector)
# T4 sequence (Q401N2 26-412 A152T/L270A): T2 sequence (Q401N2 26-412 A152T/L270I) with I245A
# Procedure: as §1, §4
# [2] = test system: ZAC^L9′V, ZAC^L9′I and ZAC^L9′T; assay: TEVC in oocytes, L9′V, L9′I and L9′T mutants (collective statement); type: cell-based, human; details: compared to WT ZAC; range over the three mutants
# Procedure: as §1, §4
# ZAC^E89A/D105A = target: T5, ZAC^E89A/D105A (Homo sapiens, UniProt Q401N2, A152T/D129A/E113A); assay: TEVC in oocytes, ZAC E89A/D105A mutant; type: cell-based
# T5 construct: expressed in transfected cells; host or cells: Xenopus oocytes injected with cRNA (pUNIV vector)
# Procedure: as §1, §2, §3
# ZAC^FPM/hα1-Gly = assay: TEVC in oocytes, Cys-loop modified chimera ZAC^FPM/hα1-Gly; type: cell-based, human; details: data not shown
# Procedure: as §1
# To probe the effects of exchanges of regions involved in the ECD/TMD cross-talk between the two CLRs fused in a chimera on its functionality, we constructed 12 additional chimeras, three for each of the four original chimeras (Fig. 1A). Inspired by the similar modifications that have been introduced in a functional GLIC/hα1-Gly chimera, we swapped one or both of two specific regions: the three-residue FPX (Phe-Pro-X) motif in the Cys-loop of the ECD (FPR, FPF and […] in ZAC, m5-HT3A and hα1 GlyR, respectively), which is known to protude into proximity of the M2-M3 linker during the ECD/TMD cross-talk, and the extracellular C-terminus of the TMD, which differs substantially in both amino acid sequence and length between ZAC and the two classical CLRs combined with it in the chimeras (Fig. 4B). […] In light of this, it was not surprising that the four chimeras comprising exchanges of both the FPX motif and the C-terminus also were non-functional (data not shown).
# T3 sequence (Q401N2 26-412 E48A/E113A/D129A/D132A/A152T/E154A): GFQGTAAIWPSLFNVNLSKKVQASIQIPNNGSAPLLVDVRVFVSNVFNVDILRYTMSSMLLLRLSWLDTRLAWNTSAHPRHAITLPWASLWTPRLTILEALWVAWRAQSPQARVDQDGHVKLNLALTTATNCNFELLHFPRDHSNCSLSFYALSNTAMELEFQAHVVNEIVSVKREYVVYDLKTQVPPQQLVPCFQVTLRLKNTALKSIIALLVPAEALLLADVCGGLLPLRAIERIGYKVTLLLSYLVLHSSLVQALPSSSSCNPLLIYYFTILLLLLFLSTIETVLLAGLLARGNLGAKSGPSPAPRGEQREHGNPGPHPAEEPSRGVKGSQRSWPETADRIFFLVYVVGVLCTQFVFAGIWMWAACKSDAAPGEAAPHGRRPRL
# T5 sequence (Q401N2 26-412 E113A/D129A/A152T): as the sequence (Q401N2 26-412 E48A/E113A/D129A/D132A/A152T/E154A) above, with A23E, A107D, A129E counted along it
compound,measurement,setting,value
"[Cl-].[Cl-].[Zn+2] [Zn^2+, ZnCl2]",fitted EC50 relative to WT ZAC (higher),ZAC^H79A,2.4 fold
same,modulation of 5-HT (EC80)-evoked currents,WT m5-HT3AR,potentiated the 5-HT-induced response through WT m5-HT3AR at low-micromolar concentrations and inhibited it at higher concentrations
same,EC50,ZAC^L9′I,24 µM
same,nH ± S.E.M. (Hill slope),ZAC^L9′I,0.8 ± 0.2
same,pEC50 ± S.E.M.,ZAC^L9′I,4.62 ± 0.15
same,agonist responsiveness,[1],non-responsive
same,EC50,ZAC^L9′A,230 µM
same,nH ± S.E.M. (Hill slope),ZAC^L9′A,1.2 ± 0.2
same,pEC50 ± S.E.M.,ZAC^L9′A,3.64 ± 0.08
same,left-shift of Zn^2+ concentration-response relationship,[2],8–30 fold
same,concentration-response relationship compared to WT ZAC,ZAC^E89A/D105A,very similar to that at WT ZAC
same,concentration-response relationship compared to ZAC/hα1-Gly,ZAC^FPM/hα1-Gly,not significantly different
